Test results published in patent US11213527B2, “Inhibitory effect of low molecular weight compound on cancer and fibrosis” (NATIONAL UNIVERSITY CORPORATION TOTTORI UNIVERSITY, priority 2014, dated 2022).

Tests used:
[1] = tested on: squamous cell carcinoma cells (HSC2; HSC3 for IC-2); assay: Anti-tumor effect on squamous cell carcinoma cells (TetraColor ONE); assay type: cell-based; settings: HSC2 (HSC3 also for IC-2); 48 hours
Procedure: HSC2 cells (a squamous cell carcinoma cell line) were cultured in a DMEM on a 10-cm cell culture dish (TPP Techno Plastic Products AG, Trasadingen, Switzerland) at 5% CO2, 37° C., and a humidity of 100%. The cells at 70-90% confluency were to be split and washed with PBS (−). Next, 300 μL of Trypsin/EDTA was added to 2 mL of PBS (−) and the cells were incubated with this solution at 37° C. for 5 min to detach the cells. Then, 5 mL of DMEM was used to recover the cells. The recovered cells were centrifuged at 1000 rpm for 3 min to remove a supernatant. The pelleted cells were suspended in DMEM and subcultured at 1:4.
First, 2.5×10^3 of HSC2 cells were seeded on each well of a 96-well plate (TPP). After 48 hours from the low-molecular-weight compound treatment, 100 μL of 10% TetraColor ONE (SEIKAGAKU CORPORATION, Tokyo, Japan) was added and the mixture was then incubated at 37° C. After that, absorbance (at a measurement wavelength of 450 nm/a control wavelength of 600 nm) was measured by a 96-well microplate reader (TECAN, Zurich, Switzerland). The same procedure was used to investigate an anti-tumor effect of IC-2 on a squamous cell carcinoma cell line HSC3 after culturing.

[2] = tested on: fibrosis markers TGFβ, α-SMA, and COL1A1; assay: Real-time PCR of fibrosis markers in LX-2 cells; assay type: cell-based, human; settings: compound+TGFβ, with increasing concentration
Procedure: A human liver stellate cell line (LX-2 cells) was maintained and cultured in a DMEM containing 10% FBS. The cells used for experiments were suspended in a DMEM containing 1% FBS and plated. The cell density was at about 2.0×10^5 cell/cm^2.
A real-time PCR was carried out to examine an inhibitory effect of each low-molecular-weight compound on fibrosis. The real-time PCR was conducted under conditions indicated in FIG. 55 and the following sections 9.4.1 to 9.4.2. Note that TGFβ, α-SMA, and COL1A1 are fibrosis markers.
A pre-Mix was prepared by using MilliQ water: 5.2 μL/sample, MgCl2: 0.8 μl/sample, 10 μM primer F: 0.5 μl, 10 μM primer R: 0.5 μl, and LightCycler FastStart DNA Master SYBER Green I (1a+1b): […]/sample. Next, 8 μL of the pre-Mix was pipetted into each well. Then, 2 μL of the sample was added thereto.

liver fibrosis = assay: Liver disease model mice (carbon tetrachloride-induced liver fibrosis); assay type: in vivo, C57BL/6 male mice; settings: IC-2 10.6 or 21.2 mg/kg intraperitoneally 3 times a week for 4 weeks, vs vehicle
Procedure: First, 7-week-old C57BL/6 male mice (Japan SLC, Shizuoka, Japan) were subject to 1-week preparatory rearing. Among them, healthy mice were used. The mice were housed in an animal cage at a room temperature of 22±1° C. and a humidity of 50±5% throughout the preparatory rearing and experimental period and were given ad libitum access to food and water.
A microsyringe (ITO CORPORATION, Shizuoka, Japan) was used to intraperitoneally administer carbon tetrachloride (CCl4: Wako Pure Chemical Industries, Ltd., Osaka, Japan) at 0.2 ml/kg, 3 times a week, for 4, 6, or 8 weeks. Carbon tetrachloride was dissolved into cone oil (Wako Pure Chemical Industries, Ltd.) at a concentration of 10%. The resulting solution was used. After this carbon tetrachloride solution was administered for 4 weeks, the mice were divided into a vehicle administration group, a glycyrrhizin administration group, an ICG-001 administration group, and an IC-2 administration group. Then, a microsyringe was used to intraperitoneally administer, 3 times a week for 4 weeks, carbon tetrachloride and a drug solution prepared in accordance with the following process. Note that the carbon tetrachloride and the drug solution were alternately administered with one-day interval.
Glycyrrhizin (TOKYO CHEMICAL INDUSTRY CO., LTD., Tokyo, Japan) was dissolved in physiological saline. The solution was prepared at a concentration of 30 mg/ml while the pH was adjusted to 7.0 with 4 M NaOH liquid. IC-2 and ICG-001 (AdooQ BioScience, California, USA) were each dissolved in a WellSolve (Celeste Corporation, Tokyo, Japan) at a concentration of 40 mg/ml and 10 mg/ml, respectively. Next, the mixture was heated for 10 min in a hot water bath at 60° C. and was then completely dissolved. A 9-fold volume of physiological saline was added to the WellSolve solution in which the above drugs had each been dissolved. […] Note that an IC-2 dosage was determined on the basis of an effective concentration in vitro. […]

Compound: O=C1[C@H](Cc2ccccc2)N2C(=O)CCN(C(=O)NCc3ccccc3)[C@H]2CN1Cc1cccc2ccccc12 [IC-2]
- inhibitory effects on proliferation of the squamous cell carcinoma cells [1]: exerted inhibitory effects on proliferation
- level of expression of COL1A1 ([2]; 24 or 48 hours): decreased
- level of expression of α-SMA ([2]; 24 or 48 hours): remarkably reduced
- level of expression of TGFβ ([2]; 24 hours): decreased
- level of expression of TGFβ ([2]; 48 hours): decreased
- fibrosis area (Sirius red staining) (liver fibrosis): a decrease in the fibrosis area was detected
- content of hydroxyproline (liver fibrosis; glycyrrhizin 150 mg/kg): a large decrease was observed
